Measured values from US20170057995A1, “USE OF AROMATIC-CATIONIC PEPTIDES TO TREAT CHOLESTEROL-INDUCED MITOCHONDRIAL DYSFUNCTION” (CORNELL UNIVERSITY, priority 2013, published 2017).
Where no end group is shown, it is not given here. [ ]: non-standard residue; d: D form.

Legend:
cytochrome c [1] = assay: Cytochrome c peroxidase activity (Amplex Red Peroxidase Kit); format: biochemical; settings: for reduction in cytochrome c peroxidase activity compared to cytochrome c exposed to chol-POPC liposomes only: 300 μM chol-POPC liposomes, cytochrome c incubated with peptide first, peptide concentration not stated (FIG. 2 range 0-300 μM); for effect on cholesterol-induced cytochrome c peroxidase activity (FIG. 2): peptide 0 μM to 300 μM, 300 μM cholesterol
Experimental: Cytochrome c peroxidase activity was measured using the Amplex Red Peroxidase Kit. Amplex Red reagent reacts with H2O2 in a 1:1 ratio in the presence of a peroxidase in order to create a highly fluorescent compound called resorufin, which has an excitation at 570 nm and an emission at 585 nm. 2 μM cytochrome c was incubated in 20 mM Hepes buffer pH 7.4 with varying concentrations of free cholesterol dissolved in ethanol or cholesterol-POPC liposomes (chol-POPC). 10 μM of H2O2 and 50 μM of Amplex Red reagent were subsequently added. The fluorescence was then measured using time course data collected from a Spectra Max 190 microplate spectrofluorometer (Molecular Devices, Sunnyvale, Calif.). Liposomes were prepared as previously described in Melzak et al., Langmuir, 24: 9172-9180 (2008). Chol-POPC liposomes were prepared in a 1:1 molar ratio. Stock solutions were mixed and then dried under nitrogen from 30 minutes. After resuspension in 20 mM Hepes buffer pH 7.4, the liposomes were extruded 25 times through a 50 nm pore membrane (Avestin).

cytochrome c [2] = assay: Cytochrome c reduction by ascorbate (absorbance at 550 nm); format: biochemical; settings: 100 μM chol-POPC liposomes, 20 μM cytochrome c, 50 μM vitamin C; peptide up to 300 μM
Experimental: Liposomes were prepared as previously described in Melzak et al., Langmuir, 24: 9172-9180 (2008). Chol-POPC liposomes were prepared in a 1:1 molar ratio. Stock solutions were mixed and then dried under nitrogen from 30 minutes. After resuspension in 20 mM Hepes buffer pH 7.4, the liposomes were extruded 25 times through a 50 nm pore membrane (Avestin). 20 μM cytochrome c in Hepes buffer pH 7.4 was contacted with varying concentrations of chol-POPC liposomes and peptide. 50 μM ascorbate (vitamin C) was added after five minutes in order to promote the reduction the cytochrome c protein. The absorbance at 550 nm was then recorded in order to obtain the rate of the reaction after treatment with varying concentrations of peptide and cholesterol using a spectrophotometer (Spectramax Gemini XPS, Molecular Devices, Sunnyvale, Calif.). (See Basova et al., 2007).

cytochrome c [3] = assay: Circular dichroism spectroscopy of cytochrome c (Soret region); settings: 100 μM peptide; 40 μM chol-POPC liposomes; 10 mM cytochrome c
Experimental: The circular dichroism (CD) spectra was collected using an AVIA 62 DS spectrophotometer. The CD spectra was analyzed between 375-450 nm in order to monitor the Soret region using a CD 10-mm path-length for cells containing 20 mM Hepes (pH 7.4) and […] cytochrome c in the presence or absence of 40 μM chol-POPC liposomes and/or 100 μM SS-31.
Circular dichroism (Olis DSM20 spectropolarimeter) was carried out to analyze Soret region (375-450 nm), a probe for the attachment of the Met80 residue to the heme iron. The decreased intensity of the 416 nm Cotton effect (negative Cotton peak) is indicative of a perturbed heme pocket region, as the 416 nm dichroic band serves as a readout for the Met80-Fe(III) coordination in native cytochrome c. (Santucci et al., 1997). […] The CD spectra data comports with the findings of Examples 1 and 3 because the disruption of the Fe-Met80 coordination increases the exposure of the heme Fe to H2O2, thereby causing cytochrome c to switch from an electron carrier to a peroxidase.

cytochrome c [4] = assay: Absorbance spectrum of cytochrome c (Soret band, 350-450 nm); settings: 100 μM peptide
Experimental: The effects of cholesterol and aromatic-cationic peptides on the structure of cytochrome c were analyzed using absorbance spectra (Pinherio et al., 1997). Wild-type cytochrome c typically has a peak at around 410 nm (which represents the Soret region) that may be affected by protein damage. Absorbance between 350-450 nm was analyzed using a Spectramax Gemini XPS spectrophotometer (Molecular Devices, Sunnyvale, Calif.).
Cholesterol-induced structural alterations of cytochrome c were also analyzed using absorption spectroscopy. The absorbance spectrum between 350 and 450 nm was analyzed so as to monitor changes to the Soret band. A Soret band with a maximum intensity at 410 nm is indicative of the presence of both axial ligands (His18 and Met80 ligated to heme iron). (Pinherio et al., 1997).

| Compound | increase in cytochrome c peroxidase activity (cytochrome c [1]; 300 μM, 2 μM cytochrome c, 10 μM H2O2, 50 μM Amplex Red) [fold] | effect on cholesterol-induced impairment of cytochrome c reduction (FIG. 3B) (cytochrome c [2]) | reduction in cytochrome c peroxidase activity compared to cytochrome c exposed to chol-POPC liposomes only (cytochrome c [1]) [%] | effect on cholesterol-induced cytochrome c peroxidase activity (FIG. 2) (cytochrome c [1]; 2 μM cytochrome c) | negative Cotton peak of cytochrome c incubated with chol-POPC liposomes (CD spectra) (cytochrome c [3]) | intensity of the 410 nm absorbance peak of cytochrome c incubated with chol-POPC liposomes (cytochrome c [4]) |
| --- | --- | --- | --- | --- | --- | --- |
| CC(C)CCC[C@@H](C)[C@H]1CC[C@H]2[C@@H]3CC=C4C[C@@H](O)CC[C@]4(C)[C@H]3CC[C@]12C [cholesterol] | 40 |  |  |  |  |  |
| F[dR]FK-NH2 [SS-20] |  | reversed | 77 | inhibit cholesterol-induced cytochrome c peroxidase activity in a dose-dependent manner |  |  |
| D-Arg-2′,6′-Dmt-Lys-Phe-NH2 [SS-31] |  | reversed | 75 | inhibit cholesterol-induced cytochrome c peroxidase activity in a dose-dependent manner | restores the negative Cotton peak | increases the intensity of the 410 nm peak |
